Patent US20050112573A1, “Method of detecting toxic substance” (priority 2001, published 2005)

Test system: yeast genes (level of expressed mRNA)
Assay: DNA chip analysis of expressed mRNA of yeast genes after 2 h culture with a toxic chemical substance
Type: cell-based, Saccharomyces cerevisiae S288C
Conditions: for The level of expressed mRNA in the presence of chemical substance/ (ratio to absence of chemical substance): stress protein genes, DNA chip
Method: Yeast (Saccharomyces cerevtisiae S288C (α SUC2mal mel gap2 CUP1)) were cultured at 25° C. on YPD medium (yeast extract 1%, polypepton 2%, glucose 2%). One of toxic chemical substances was added to the cell at logarithmic growth phase, and the cell was further cultured for two hours. Cell was cultured without any chemical substance in the same condition, and was used as control. Concentrations of the chemical substances were defined to inhibit the growth of the yeast but not lead to death.
After the completion of cultivation, the culture was centrifuged to collect the cells. To the cells, sodium acetate buffer (50 mM sodium acetate, 10 mM EDTA, 1% SDS) was added, and the mixture was shaken at 65° C. for five minutes, followed by returning to room temperature, and obtaining the supernatant, which procedure was repeated two times. To the supernatant, ½ amount of a solution of phenol/chloroform was added, and the mixture was centrifuged to give a supernatant, which was added with an equal amount of chloroform, and the mixture was centrifuged to give a supernatant. To the supernatant, an equal amount of isopropanol containing 0.3 M sodium acetate was added, and the mixture was allowed to stand at room temperature for 30 minutes, after which the mixture was centrifuged to give a sediment of the whole RNAs. Seventy % ethanol was added to the sediment, and the mixture was again centrifuged to give a sediment, which was then dried and dissolved in water. mRNA was isolated from the whole RNAs as followings. In view of the fact that a poly A chain is attached to the 3′ terminus of mRNA, a polynucleotide having a poly T structure which was immobilized on the surface of latex beads was used to trap the mRNA, and then the mRNA was washed and eluted with spine column (Oligotex-dT30<Super>mRNA Purification Kit, Takara). Reverse transcription of the mRNA was conducted with a reverse transcriptase (Super Script II Reverse Transcriptase; catalogue No. 18064-014, GibcoBRL) using fluorescence-labeled nucleotides to give cDNAs that were introduced with Cy3-dUTP or Cy5-dUTP during the reverse transcription.
The labeled cDNAs were dissolved in TE buffer (10 mM Tris-HCl/1 mM EDTA, pH8.0), and the solution was dropped on the DNA chip containing the whole genes of yeast (DNA Chip Research Inc. Japan) so that the cDNAs were hybridized on the DNA chip at 65° C. for over 12 hours. The fluoresces intensity of the DNA chip was read with a scanner, and the ratio relative to the fluorescence intensity resulting from the absence of chemical substance was estimated as the following, which is shown in Tables 1 to 9: [formula]
In the Tables, “Intensity” indicated in the rightmost column is a value of the level of expressed mRNA of each gene in control cells as divided by the average level of the expressions of the whole genes.

For `CCCCCCCCCCCCOS(=O)(=O)[O-].[Na+]` [(18), sodium lauryl sulfate], the “The level of expressed mRNA in the presence of chemical substance/The level of expressed mRNA in the absence of chemical substance” value (yeast gene YIL140W) was 1.0, the “The level of expressed mRNA in the presence of chemical substance/ (in its absence), gene YJL070C” value (yeast gene YJL070C, ratio of DNA chip fluorescence intensity to that without chemical substance) was 1.2 and the “The level of expressed mRNA in the presence of chemical substance/The level of expressed mRNA in the absence of chemical substance” value (yeast gene YJL073W) was 1.0. The “The level of expressed mRNA in the presence of chemical substance/The level of expressed mRNA in the absence of chemical substance” value (yeast gene YJL089W) was 1.1, the “The level of expressed mRNA in the presence of chemical substance/ (ratio to absence), gene YJL096W” value (yeast gene YJL096W, mitochondria-located protein genes, 2 h culture with chemical) was 1.2 and the “The level of expressed mRNA in the presence of chemical substance/The level of expressed mRNA in the absence of chemical substance” value (yeast gene YJL116C) was 0.7. For the same compound, the “The level of expressed mRNA in the presence of chemical substance/ (ratio to absence of chemical substance)” value (yeast gene YJL158C) was 1.4, the “The level of expressed mRNA in the presence of chemical substance/ (in its absence), gene YJL167W” value (yeast gene YJL167W, ratio of DNA chip fluorescence intensity to that without chemical substance) was 2.1 and the “The level of expressed mRNA in the presence of chemical substance/ (ratio to absence), gene YJL180C” value (yeast gene YJL180C, mitochondria-located protein genes, 2 h culture with chemical) was 1.4. For the same compound, the “The level of expressed mRNA in the presence of chemical substance/ (in its absence), gene YJL216C” value (yeast gene YJL216C, ratio of DNA chip fluorescence intensity to that without chemical substance) was 2.0, the “The level of expressed mRNA in the presence of chemical substance/The level of expressed mRNA in the absence of chemical substance” value (yeast gene YJR004C) was 0.4 and the “The level of expressed mRNA in the presence of chemical substance/The level of expressed mRNA in the absence of chemical substance” value (yeast gene YJR086W) was 1.6. For the same compound, the “The level of expressed mRNA in the presence of chemical substance/ (ratio to absence of chemical substance)” value (yeast gene YJR090C) was 1.0, the “The level of expressed mRNA in the presence of chemical substance/The level of expressed mRNA in the absence of chemical substance” value (yeast gene YKL008C) was 1.9 and the “The level of expressed mRNA in the presence of chemical substance/The level of expressed mRNA in the absence of chemical substance” value (yeast gene YKL013C) was 1.7. The “The level of expressed mRNA in the presence of chemical substance/The level of expressed mRNA in the absence of chemical substance” value (yeast gene YKL039W) was 1.3, the “The level of expressed mRNA in the presence of chemical substance/The level of expressed mRNA in the absence of chemical substance” value (yeast gene YKL041W) was 1.3 and the “The level of expressed mRNA in the presence of chemical substance/The level of expressed mRNA in the absence of chemical substance” value (yeast gene YKL096W) was 0.7. For the same compound, the “The level of expressed mRNA in the presence of chemical substance/ (ratio to absence of chemical substance)” value (yeast gene YKL164C) was 0.8, the “The level of expressed mRNA in the presence of chemical substance/The level of expressed mRNA in the absence of chemical substance” value (yeast gene YKL165C) was 1.0 and the “The level of expressed mRNA in the presence of chemical substance/The level of expressed mRNA in the absence of chemical substance” value (yeast gene YKL193C) was 2.3. For the same compound, the “The level of expressed mRNA in the presence of chemical substance/ (in its absence), gene YKR009C” value (yeast gene YKR009C, ratio of DNA chip fluorescence intensity to that without chemical substance) was 2.5, the “The level of expressed mRNA in the presence of chemical substance/ (in its absence), gene YKR034W” value (yeast gene YKR034W, ratio of DNA chip fluorescence intensity to that without chemical substance) was 1.0 and the “The level of expressed mRNA in the presence of chemical substance/ (ratio to absence of chemical substance)” value (yeast gene YKR053C) was 2.4. The “The level of expressed mRNA in the presence of chemical substance/ in its absence, gene YKR058W” value (yeast gene YKR058W, energy system protein genes, 2 h culture with the chemical, ratio to control without chemical) was 1.6, the “The level of expressed mRNA in the presence of chemical substance/ (in its absence), gene YLR006C” value (yeast gene YLR006C, ratio of DNA chip fluorescence intensity to that without chemical substance) was 1.0 and the “The level of expressed mRNA in the presence of chemical substance/ (ratio to absence of chemical substance)” value (yeast gene YLR006C) was 1.0. The “The level of expressed mRNA in the presence of chemical substance/The level of expressed mRNA in the absence of chemical substance” value (yeast gene YLR120C) was 2.9, the “The level of expressed mRNA in the presence of chemical substance/The level of expressed mRNA in the absence of chemical substance” value (yeast gene YLR136C) was 1.4 and the “The level of expressed mRNA in the presence of chemical substance/The level of expressed mRNA in the absence of chemical substance” value (yeast gene YLR178C) was 3.6. For the same compound, the “The level of expressed mRNA in the presence of chemical substance/The level of expressed mRNA in the absence of chemical substance” value (yeast gene YLR250W) was 2.2, the “The level of expressed mRNA in the presence of chemical substance/ in its absence, gene YLR295C” value (yeast gene YLR295C, energy system protein genes, 2 h culture with the chemical, ratio to control without chemical) was 1.5 and the “The level of expressed mRNA in the presence of chemical substance/ (ratio to absence), gene YLR295C” value (yeast gene YLR295C, mitochondria-located protein genes, 2 h culture with chemical) was 1.5. For the same compound, the “The level of expressed mRNA in the presence of chemical substance/The level of expressed mRNA in the absence of chemical substance” value (yeast gene YLR327C) was 5.3, the “The level of expressed mRNA in the presence of chemical substance/ (in its absence), gene YLR351C” value (yeast gene YLR351C, ratio of DNA chip fluorescence intensity to that without chemical substance) was 1.8 and the “The level of expressed mRNA in the presence of chemical substance/The level of expressed mRNA in the absence of chemical substance” value (yeast gene YLR356W) was 1.0. For the same compound, the “The level of expressed mRNA in the presence of chemical substance/The level of expressed mRNA in the absence of chemical substance” value (yeast gene YLR362W) was 1.3, the “The level of expressed mRNA in the presence of chemical substance/ (in its absence), gene YLR375W” value (yeast gene YLR375W, ratio of DNA chip fluorescence intensity to that without chemical substance) was 1.0 and the “The level of expressed mRNA in the presence of chemical substance/The level of expressed mRNA in the absence of chemical substance” value (yeast gene YLR391W) was 0.9. For the same compound, the “The level of expressed mRNA in the presence of chemical substance/The level of expressed mRNA in the absence of chemical substance” value (yeast gene YLR429W) was 0.9, the “The level of expressed mRNA in the presence of chemical substance/ in its absence, gene YML129C” value (yeast gene YML129C, energy system protein genes, 2 h culture with the chemical, ratio to control without chemical) was 1.3 and the “The level of expressed mRNA in the presence of chemical substance/ (ratio to absence), gene YML129C” value (yeast gene YML129C, mitochondria-located protein genes, 2 h culture with chemical) was 1.3. The “The level of expressed mRNA in the presence of chemical substance/The level of expressed mRNA in the absence of chemical substance” value (yeast gene YMR004W) was 1.3, the “The level of expressed mRNA in the presence of chemical substance/ (ratio to absence), gene YMR023C” value (yeast gene YMR023C, mitochondria-located protein genes, 2 h culture with chemical) was 1.4 and the “The level of expressed mRNA in the presence of chemical substance/The level of expressed mRNA in the absence of chemical substance” value (yeast gene YMR094W) was 1.0. The “The level of expressed mRNA in the presence of chemical substance/The level of expressed mRNA in the absence of chemical substance” value (yeast gene YMR104C) was 1.9, the “The level of expressed mRNA in the presence of chemical substance/ (ratio to absence of chemical substance)” value (yeast gene YMR186W) was 1.1 and the “The level of expressed mRNA in the presence of chemical substance/The level of expressed mRNA in the absence of chemical substance” value (yeast gene YMR219W) was 0.9. For the same compound, the “The level of expressed mRNA in the presence of chemical substance/The level of expressed mRNA in the absence of chemical substance” value (yeast gene YMR226C) was 2.0, the “The level of expressed mRNA in the presence of chemical substance/ in its absence, gene YMR267W” value (yeast gene YMR267W, energy system protein genes, 2 h culture with the chemical, ratio to control without chemical) was 1.3 and the “The level of expressed mRNA in the presence of chemical substance/ (ratio to absence), gene YMR267W” value (yeast gene YMR267W, mitochondria-located protein genes, 2 h culture with chemical) was 1.3. The “The level of expressed mRNA in the presence of chemical substance/ in its absence, gene YMR267W” value (yeast gene YMR267W, ratio of DNA chip fluorescence intensity to that without chemical substance) was 1.3, the “The level of expressed mRNA in the presence of chemical substance/The level of expressed mRNA in the absence of chemical substance” value (yeast gene YMR275C) was 0.7 and the “The level of expressed mRNA in the presence of chemical substance/The level of expressed mRNA in the absence of chemical substance” value (yeast gene YMR276W) was 0.7. For the same compound, the “The level of expressed mRNA in the presence of chemical substance/ (in its absence), gene YMR278W” value (yeast gene YMR278W, ratio of DNA chip fluorescence intensity to that without chemical substance) was 1.5, the “The level of expressed mRNA in the presence of chemical substance/ (in its absence), gene YMR293C” value (yeast gene YMR293C, ratio of DNA chip fluorescence intensity to that without chemical substance) was 1.0 and the “The level of expressed mRNA in the presence of chemical substance/The level of expressed mRNA in the absence of chemical substance” value (yeast gene YMR314W) was 1.6.
